Reference: US10040893B2, “Polymeric photoinitiators and photoinitiator monomers” (Coloplast A/S, priority 2012, dated 2018)

Tests used:
[1] = Qualitative solubility comparison of monomeric photoinitiators; format: physicochemical; conditions: photoinitiator monomer; concentration and temperature printed in the cell
Description: 100 mg of photoinitiator monomer sample was placed in a vial and appropriate amount of solvent was added. The vial was stirred at ambient temperature (20° C.) overnight or warmed with a hot air gun to 60° C. for 10 minutes. The qualitative solubility of the sample was then judged based on residual undissolved material in the vial.

| Compound | UV absorption wavelength (350-400 nm band region) | E1^1 (extinction coefficient of absorption) (at the stated absorption wavelength) | water solubility [1] |
| --- | --- | --- | --- |
| CCCOc1ccc(Cl)c2c(=O)c3ccccc3sc12 [1-chloro-4-propoxy thioxanthone] | 387 nm | 175 | – |
| O=C(c1ccccc1)c1ccc(OCCCN(CCO)CCO)cc1 [Preparatory Example 1, 4-{3-[bis(2-hydroxyethyl)amino]propoxy}benzophenone] | – | – | sparingly soluble at 100 °C |
| O=c1c2ccccc2sc2c(OCCCN(CCO)CCO)ccc(Cl)c12 [Preparatory Example 2, 4-{3-[bis(2-hydroxyethyl)amino]propoxy}-1-chloro-9H-thioxanthen-9-one] | – | – | sparingly soluble at 100 °C |
